One assay concerns WT HBG4 cells. The assay is described as follows: 3H-Deoxy-D-Glucose uptake in WT HBG4 cells. In kind it is cell-based, mouse. The protocol: (§1) Unc119 and Unc119b are important for the insulin sensitizing effect of C59. After identifying Unc119 proteins as molecular targets for C59, it was tested whether those proteins were responsible for the insulin sensitizing activity of C59. To this end Unc119 and Unc119b KO HBG4 cells were generated using CRISPR/Cas9 technology. For each of those cell lines two gRNA surrounding the start codon were used, thus resulting in a deletion of a fragment of the Unc119 genes that includes the ATG. Deletion of Unc119 and Unc119b in clonal cell lines were screened and verified by PCR (FIG. 4E). The effect of C59 on insulin-stimulated. […] To further test this finding, 3H-Deoxy-D-Glucose uptake in WT, Unc119 KO and Unc119b KO HBG4 cells treated with vehicle, insulin, C59 alone and C59 with insulin was measured.

For assay [1], the system named is GLUT4 translocation in HBG4 mice. The assay is described as follows: In vivo GLUT4 translocation in HBG4 mice (IVIS luminescence). Further details: species or system mouse. The following applies: DIO HBG4 mice treated for 2 weeks, insulin 10 minutes before substrate. As for the experimental part: C3 potentiates insulin action in primary adipocytes and in live mice. Using HBG4 mice, insulin stimulated GLUT4 translocation of endogenous GLUT4 was measured in primary skeletal muscle fibers and primary adipocytes. Enhancement of insulin-stimulated translocation of endogenous GLUT4 was also shown in primary adipocytes in the presence of C3. In parallel dishes, increased insulin-stimulated glucose uptake in HBG4 primary adipocyte treated with C3 was found. […] To determine if the HBG4 mouse can be used to measure GLUT4 translocation in vivo, HBG4 mice were pretreated with daily IP injections of vehicle or 50 mg/Kg C3 for 3 days. On the day of the experiment, mice were injected with vehicle or insulin IP followed by a subcutaneous injection of LgBiT and substrate around the leg muscles. Mice were then anesthetized and placed into an IVIS system to measure luminescence. […] Baseline signal was detected in vehicle and C3 treated HBG4 mice. […]
DIO HBG4 mice were treated with vehicle or C59 for 2 weeks and injected i.v. with an adenovirus coding for a secreted form of LgBiT (allowing LgBiT production and secretion predominantly by the liver into the circulation) 2 days prior to the experiment. Animal were then injected with saline or insulin 10 minutes before i.v. injection of substrate and luminescence imaging using an IVIS system.

Assay [2] concerns Unc119b KO HBG4 cells. The assay is described as follows: 3H-Deoxy-D-Glucose uptake in Unc119b KO HBG4 cells. In kind it is cell-based, mouse. The protocol:
as §1

In a further assay the target is T1, Unc119 (Homo sapiens, UniProt Q13432).
T1 construct: expressed in transfected cells
The assay is described as follows: Luminescence complementation based thermal shift assay, Unc119-HiBiT. In kind it is binding. The note with it: crude extract of Unc119-HiBiT transfected cells, 10 minutes incubation, heated 3 minutes. An excerpt:
Identification of the molecular target of C59. Since the discovery of C59 as an insulin sensitizer was achieved using a phenotypic screen, the molecular target of the compound was unknown. To identify the target, a Proteome Integral Solubility Alteration (PISA) assay was used. […] To measure the shift in thermal stability, constructs coding for Unc119-HiBiT and Unc119b-HiBit were generated, thus allowing the quantitative detection of those proteins by adding LgBiT and furimazin to the lysates and measuring luminescence. Crude extract from cells transfected with Unc119-HiBiT or Unc119b-HiBiT, were incubated with DMSO or C59 for 10 minutes, aliquoted, heated for 3 minutes at the indicated temperature and allowed to cool down to room temperature before adding LgBiT and furimazin and reading luminescence on a plate reader.

The subject of assay [3] is Unc119b KO HBG4 cells. The assay is described as follows: Insulin-stimulated GLUT4 translocation in Unc119b KO HBG4 cells. The class given is cell-based, mouse. As for the experimental part:
as §1

In assay [4] the test system is GLUT4 translocation in C2C12 myoblast cell line stably expressing HiBiT-GLUT4 (HBG4). The assay is described as follows: HiBiT (NanoBit) luminescence GLUT4 translocation assay in HBG4 C2C12 cells. The class given is cell-based, mouse. An excerpt: An assay was used to identify potentiators of insulin-stimulated GLUT4 translocation. In one embodiment, the assay employs Nanobit technology. This technology is based on the recombination of two complementary fragments, HiBiT and LgBiT, of the Nanoluc luciferase. HiBit was fused to an extracellular region of GLUT4 to allow for the rapid quantitation of its the surface density in live cells by adding the reconibinantly produced complementary fragment LgBiT and the luciferase substrate. Since LgBiT is not membrane permeant, only proteins at the plasma membrane are quantified. To measure GLUT4 translocation, a stable C2C12 myoblast cell line was prepared by expressing a HiBiT-tagged mouse GLUT4. […] The Chembridge Diverset library of 49,600 compounds was screened and 1264 hits were identified. A subset of those hits were selected and retested in the presence and absence of insulin.
Development of a HTS assay for real-time measurement of GLUT4 translocation. To measure GLUT4 translocation in a homogenous and HIS amenable manner, NanoBit technology was used. This technology relies on the rapid recombination of 2 fragments of the Nanoluc luciferase (HiBit and LgBiT) with high affinity for each other. Fragments have no enzymatic activity on their own but generate a bright luminescent signal when recombined. A C2C12 myoblast cell line was prepared that stably expressed HiBiT-GLUT4 (HBG4), in which the small 11 amino acid HiBiT fragment was inserted into the first extracellular loop of GLUT4. A C-terminal mCherry was also added for microscopic detection. The C2C12 line was chosen as an in vitro model because it is derived from skeletal myoblasts and translocate GLUT4 in response to insulin. Detection of plasma membrane density of HBG4 is achieved by adding recombinant LgBit and substrate to live cells. The assay can be conducted as an endpoint where cells are incubated with insulin before measuring luminescence or as a kinetic assay by adding LgBiT and substrate at the beginning of the experiment and monitor real-time insulin-stimulated GLUT4 translocation.
An assay to measure GLUT4 translocation in a homogenous and HIS amenable manner using NanoBit technology was developed. This technology relies on the rapid recombination of 2 fragments of the Nanoiuc luciferase (HiBit and LgBiT) with high affinity for each other. Fragments have no enzymatic activity on their own but generate a bright luminescent signal when recombined. A C2C12 myoblast cell line stably expressing HiBiT-GLUT4 (HBG4), in which the small 11 amino acid HiBiT fragment was inserted into the first extracellular loop of GLUT4 was prepared. A C-terminal mCherry was also added for microscopic detection (FIGS. 1A and B). The C2C12 line was chosen as an in-vitro model because it is derived from skeletal myoblasts and translocates GLUT4 in response to insulin. Detection of plasma membrane density of HBG4 is achieved by adding recombinant LgBit and substrate to live cells (FIG. 1C). The assay can be conducted as a kinetic assay by adding LgBiT and substrate at the beginning of the experiment and monitoring real-time insulin-stimulated GLUT4 translocation (FIGS. 1D and E).

Entries after “also recorded” stand apart in the source; their conditions may differ.

For `O=C(Nc1ccc(Cl)c(Cl)c1)C12CC3CC(CC(C3)C1)C2` [Compound C59], the “3H-Deoxy-D-Glucose uptake, compound alone” value in the assay with WT HBG4 cells (no insulin) and in the assay with Unc119b KO HBG4 cells [2] (no insulin) was “did not stimulate” throughout. Besides, the “insulin stimulated 3H-Deoxy-D-Glucose uptake” value in the assay with WT HBG4 cells (with insulin) was “significantly increased”; in the assay with Unc119b KO HBG4 cells [2] (with insulin), “failed to do so”. In addition, the “insulin-stimulated GLUT4 translocation in vivo” value in assay [1] was “very significantly improved”. Further, on Unc119, the “thermostability shift for Unc119” value is reported as 6.6 C. Besides, the “insulin-stimulated GLUT4 translocation” value in the assay on Unc119b KO HBG4 cells [3] is listed as “failed to enhance”; in assay [4] (in the presence of insulin, WT HBG4 C2C12 cells) it was “enhanced; also recorded: retained activity; also recorded: increased”. Also, in assay [4] (Mus musculus, HBG4 C2C12 cells, with insulin, read-out: potency (enhancement of insulin effect on GLUT4 translocation)), the EC50 came out at 2500 nM. The “efficacy compared with C3” value in assay [4] (enhancement of insulin effect on GLUT4 translocation) is “higher; also recorded: improved efficacy”.

The values above are taken from patent US20230295088A1, “INSULIN SENSITIZERS FOR THE TREATMENT OF DIABETES MELLITUS” (University of Iowa Research Foundation, priority 2020, published 2023).
